One may read the Ki as a dissociation constant, usually derived from enzyme kinetics or from competition with a known ligand. A low value points to a stronger hold on the target.

Two compounds from ChEMBL document CHEMBL1681677 (Bioorg Med Chem Lett, 2011) can be followed below.

In one experiment the target is Carbonic anhydrase 1 (Homo sapiens, UniProt P00915).
The target of another experiment is Carbonic anhydrase 2 (Homo sapiens, UniProt P00918).
The target in experiment [1] is Carbonic anhydrase 5B, mitochondrial (Homo sapiens, UniProt Q9Y2D0).
Chain of Carbonic anhydrase 5B, mitochondrial (Q9Y2D0 whole entry): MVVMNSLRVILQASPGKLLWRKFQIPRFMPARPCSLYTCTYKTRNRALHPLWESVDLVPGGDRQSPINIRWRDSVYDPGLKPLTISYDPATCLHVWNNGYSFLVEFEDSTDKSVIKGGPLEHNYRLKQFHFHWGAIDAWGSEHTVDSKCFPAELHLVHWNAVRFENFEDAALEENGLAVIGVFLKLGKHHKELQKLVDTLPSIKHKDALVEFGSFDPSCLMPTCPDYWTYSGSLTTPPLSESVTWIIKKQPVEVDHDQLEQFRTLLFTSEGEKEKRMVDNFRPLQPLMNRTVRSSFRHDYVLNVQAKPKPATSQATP
Experiment [2] deals with Carbonic anhydrase 5A, mitochondrial (Homo sapiens, UniProt P35218).
Chain of Carbonic anhydrase 5A, mitochondrial (P35218 whole entry): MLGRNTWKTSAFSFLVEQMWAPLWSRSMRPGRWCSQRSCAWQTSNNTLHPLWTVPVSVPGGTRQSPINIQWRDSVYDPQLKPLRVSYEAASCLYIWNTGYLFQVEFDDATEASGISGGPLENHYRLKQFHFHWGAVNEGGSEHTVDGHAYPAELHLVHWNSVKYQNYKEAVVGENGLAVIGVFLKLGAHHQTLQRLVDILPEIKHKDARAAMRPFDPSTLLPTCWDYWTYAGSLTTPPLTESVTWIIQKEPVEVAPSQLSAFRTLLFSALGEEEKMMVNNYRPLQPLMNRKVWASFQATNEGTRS

Chain of Carbonic anhydrase 1 (P00915 whole entry): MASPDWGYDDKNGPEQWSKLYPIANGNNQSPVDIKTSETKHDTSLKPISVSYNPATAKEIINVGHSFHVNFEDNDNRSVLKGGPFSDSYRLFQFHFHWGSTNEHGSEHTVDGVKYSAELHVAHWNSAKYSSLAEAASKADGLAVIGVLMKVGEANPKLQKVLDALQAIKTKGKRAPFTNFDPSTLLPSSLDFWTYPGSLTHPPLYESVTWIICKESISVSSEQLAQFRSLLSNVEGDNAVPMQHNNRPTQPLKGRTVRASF

For the compound `CC1(C)C2CC[C@]1(CS(=O)(=O)NCc1ccc(S(N)(=O)=O)cc1)C(=O)C2`, the Ki was determined as 920 nM on Carbonic anhydrase 1, 1560 nM at Carbonic anhydrase 2, 40.3 nM in experiment [1] and 16.6 nM in experiment [2].

With `CC1(C)C2CC[C@@]1(CS(=O)(=O)NCc1ccc(S(N)(=O)=O)cc1)C(=O)C2`, the Ki was 1040 nM on Carbonic anhydrase 1, 2460 nM at Carbonic anhydrase 2, 67.3 nM in experiment [1] and 27.5 nM in experiment [2].
